Test results published in ChEMBL document CHEMBL1124608, “Synthesis of acylguanidine analogues: inhibitors of ADP-induced platelet aggregation” (J Med Chem, 1989).
In brackets after ≈: the same amount, converted by molar mass. Several values for one entry are separate records, joined by “and”; a condition that tells them apart may be missing. Equal values may be shown once. Activity calls are given as the source filed them. No cut-off for these calls is given here.

Experiments:
[1] = Concentration required to inhibit in vitro ADP-induced platelet aggregation in human platelet rich plasma relative PGE1; assay type: functional
[2] = Inhibitory concentration required to inhibit ADP-induced platelet aggregation in human platelet rich plasma; assay type: functional, cell-free
[3] = test system: Rattus norvegicus; assay: ADP-induced platelet aggregation activity was tested for oral activity in rats at dose 100 mg/kg; assay type: functional
[4] = species on record: Homo sapiens; assay: Activity against PRP following incubation for 30 min in human whole blood; Active; assay type: functional, tissue-based
[5] = Inhibitory activity against ADP-induced platelet aggregation at concentration 3.2 ug/mL; assay type: functional, Homo sapiens
[6] = Inhibitory activity against ADP-induced platelet aggregation at concentration 10 ug/mL; assay type: functional, Homo sapiens; details: for inhibition at 10 µg/mL: Homo sapiens
[7] = Inhibitory activity against ADP-induced platelet aggregation at concentration 1 ug/mL; assay type: functional, Homo sapiens
[8] = test system: Cavia porcellus; assay: ADP-induced platelet aggregation activity was tested for oral activity in guinea pigs at dose 100 mg/kg; assay type: functional
[9] = test system: Rattus norvegicus; assay: ADP-induced platelet aggregation activity was tested for oral activity in rats at dose 30 mg/kg; assay type: functional
[10] = test system: Rattus norvegicus; assay: ADP-induced platelet aggregation activity was tested for oral activity in rats at dose 25 mg/kg; assay type: functional
[11] = test system: Cavia porcellus; assay: ADP-induced platelet aggregation activity was tested for oral activity in guinea pigs at dose 50 mg/kg; assay type: functional
[12] = test system: Rattus norvegicus; assay: ADP-induced platelet aggregation activity was tested for oral activity in rats at dose 50 mg/kg; assay type: functional
[13] = test system: Cavia porcellus; assay: ADP-induced platelet aggregation activity was tested for oral activity in guinea pigs at dose 50 mg/kg
[14] = Inhibitory activity against ADP-induced platelet aggregation at concentration 1.0 ug/mL; assay type: functional; details: Homo sapiens
[15] = Inhibitory activity against ADP-induced platelet aggregation at concentration 32 ng/mL; assay type: functional, Homo sapiens
[16] = Inhibitory activity against ADP-induced platelet aggregation at concentration 10 ng/mL; assay type: functional, Homo sapiens
[17] = test system: Cavia porcellus; assay: ADP-induced platelet aggregation activity was tested for oral activity in guinea pigs at dose 30 mg/kg; assay type: functional
[18] = species on record: Homo sapiens; assay: Activity against PRP following incubation for 30 min in human whole blood; Inactive; assay type: functional, tissue-based

| Compound | IC50 [2] | Relative potency [1] | Aggregation [3] | further results |
| --- | --- | --- | --- | --- |
| Cl.Cl.O=C(NCCCCCCNC(=O)N(/C(=N/C1CCCCC1)N1CCOCC1)C1CCCCC1)N(/C(=N\C1CCCCC1)N1CCOCC1)C1CCCCC1 | 10 µg/mL | 0.001 | 84.5% |  |
| O=C(NCCCCCCNC(=O)N(C(=NC1CCCCC1)N1CCOCC1)C1CCCCC1)N(C(=NC1CCCCC1)N1CCOCC1)C1CCCCC1 | 3.2 µg/mL (≈ 4.24 µM) | 0.003 | 80.8% | Activity [4]: Active; Inhibition [5]: 38% and 62%; Inhibition [6]: 85%; inhibition at 10 µg/mL [6]: 82%; Inhibition [7]: 27%; inhibition at 1 µg/mL ([7]; Homo sapiens): 29% |
| O=C(NCCCCCNC(=O)N(C(=NC1CCCCC1)N1CCOCC1)C1CCCCC1)N(C(=NC1CCCCC1)N1CCOCC1)C1CCCCC1 | 10 µg/mL (≈ 13.5 µM) | 0.001 | 41% |  |
| O=C(N1CCN(C(=O)N(/C(=N/C2CCCCC2)N2CCOCC2)C2CCCCC2)CC1)N(/C(=N/C1CCCCC1)N1CCOCC1)C1CCCCC1 | 10 µg/mL (≈ 13.8 µM) | 0.001 | 44.8% |  |
| CN(Cc1cccc(CN(C)C(=O)N(C(=NC2CCCCC2)N2CCOCC2)C2CCCCC2)c1)C(=O)N(C(=NC1CCCCC1)N1CCOCC1)C1CCCCC1 | 3.2 µg/mL (≈ 3.98 µM) | 0.003 | 38.5% |  |
| O=C(NCCCCCCNC(=O)N(C(=NC1CCCCC1)N1CCCCC1)C1CCCCC1)N(C(=NC1CCCCC1)N1CCCCC1)C1CCCCC1 | 10 µg/mL (≈ 13.3 µM) | 0.001 | 46.2% | Aggregation [8]: 48.7%; Aggregation [10]: 83.2%; Aggregation [11]: 47.7%; Aggregation [12]: 86% |
| O=C(NCc1cccc(CNC(=O)N(C(=NC2CCCCC2)N2CCOCC2)C2CCCCC2)c1)N(C(=NC1CCCCC1)N1CCOCC1)C1CCCCC1 | 3.2 µg/mL (≈ 4.13 µM) | 0.003 |  | Activity [4]: Active; Aggregation [13]: 19.3%; inhibition at 3.2 µg/mL ([5]; Homo sapiens): 40%; inhibition at 10 µg/mL [6]: 68%; inhibition at 1 µg/mL [14]: 27% |
| CN(CCN(C)C(=O)N(C(=NC1CCCCC1)N1CCOCC1)C1CCCCC1)C(=O)N(C(=NC1CCCCC1)N1CCOCC1)C1CCCCC1 | 3.2 µg/mL (≈ 4.4 µM) | 0.003 | 100% | Aggregation [8]: 0%; Aggregation [17]: 62.7% |
| O=C(NCCCCNC(=O)N(C(=NC1CCCCC1)N1CCOCC1)C1CCCCC1)N(C(=NC1CCCCC1)N1CCOCC1)C1CCCCC1 | 10 µg/mL (≈ 13.8 µM) | 0.001 | 73.5% |  |
| O=C(NCc1cc(CNC(=O)N(C(=NC2CCCCC2)N2CCOCC2)C2CCCCC2)cc(CNC(=O)N(C(=NC2CCCCC2)N2CCOCC2)C2CCCCC2)c1)N(C(=NC1CCCCC1)N1CCOCC1)C1CCCCC1 | 10 µg/mL (≈ 8.9 µM) | 0.001 |  | Activity [18]: inactive |

The next lines start with results.

| IC50 [2] | Compound | Relative potency [1] | Aggregation [3] | further results |
| --- | --- | --- | --- | --- |
| 10 µg/mL (≈ 12.8 µM) | O=C(NCCCCCCCCNC(=O)N(C(=NC1CCCCC1)N1CCOCC1)C1CCCCC1)N(C(=NC1CCCCC1)N1CCOCC1)C1CCCCC1 | 0.001 |  |  |
| 3.2 µg/mL (≈ 4.09 µM) | CN(CCCCCCN(C)C(=O)N(C(=NC1CCCCC1)N1CCOCC1)C1CCCCC1)C(=O)N(C(=NC1CCCCC1)N1CCOCC1)C1CCCCC1 | 0.003 | 52% | Aggregation [8]: 41%; Aggregation [9]: 81.2% |
| 10 µg/mL (≈ 13 µM) | O=C(NCCCCCCCNC(=O)N(C(=NC1CCCCC1)N1CCOCC1)C1CCCCC1)N(C(=NC1CCCCC1)N1CCOCC1)C1CCCCC1 | 0.001 | 70.5% |  |
| 10 µg/mL (≈ 12.5 µM) | O=C(NCCCCCCCCCNC(=O)N(C(=NC1CCCCC1)N1CCOCC1)C1CCCCC1)N(C(=NC1CCCCC1)N1CCOCC1)C1CCCCC1 | 0.001 |  |  |
| 0.01 µg/mL (≈ 0.0282 µM) | CCCCC[C@H](O)/C=C/[C@H]1[C@H](O)CC(=O)[C@@H]1CCCCCCC(=O)O [ALPROSTADIL] | 1 |  | Inhibition [15]: 94% and 90% and 72%; Inhibition [16]: 56% and 28% and 37% |
